From patent publication US8440683B2, “Pharmaceutical preparation for treating demyelinating diseases of the nervous system; preparation promoting restoration of the myelin sheath of nerve fibers; and a method for treating demyelinating diseases of the nervous system” (priority 2007, dated 2013)

Experiments:
[1] = clinical scale; abscesses, hematomas, elevated arterial pressure, allergic reactions etc.; cited from earlier work
[2] = treatment of myelopathy patients with lateral amyotrophic syndrome; type: in vivo; conditions: intramuscular 2.0 ml of 0.25% solution twice a day, two to three weeks
Procedure: Administration of stephaglabrin sulfate intramuscularly in 2.0 ml doses of a 0.25% solution twice a day for two to three weeks in treating myelopathy patients showing elements of a lateral amyotrophyic syndrome.

[3] = treatment of patients with cerebrospinal form of disseminated sclerosis; type: in vivo; conditions: disseminated sclerosis with tetraparesis, cerebello-ataxic syndrome, pelvic disorders
Description: The preparation was effective in patients suffering from the cerebrospinal form of disseminated sclerosis combined with tetraparesis, cerebello-ataxic syndrome, and pelvic disorders.

[4] = treatment of amyotrophic lateral sclerosis patients; type: in vivo
Description: Another patient had their disordered breathing, which could not be corrected by other preparations, restored.

[5] = system: true and false cholinesterase; conditions: cited from earlier work
[6] = in vivo; cited from earlier work
[7] = system: smooth muscles; conditions: cited from earlier work
[8] = in vivo; cited from earlier work; remark: listed apart in the source
[9] = system: degenerating nerves; test: myelination of degenerating nerves in rats; type: in vivo
Description: By comparison, myelination of nerve fibers proceeded slowly in control animals that were not treated with stephaglabrin sulfate and was not completed even within 100 to 120 days.

[10] = in water and aqueous alcohol; cited from earlier work
[11] = treatment of syringomyelia patients; type: in vivo
Procedure: The preparation was administered to 37 patients suffering from syringomyelia.
Along with the administration of the preparation, all the patients were directed to take massage sessions, physiotherapy exercises, spine ionization by potassium iodide, and vitamins B1 and B12. […] Special attention must be drawn to the fact that the malfunctions are corrected in patients showing early signs of syringobulbia.

[12] = system: connective tissue development; conditions: damage to a nerve; U.S.S.R. Patent No. 1,713,151; cited from earlier work
[13] = system: Schwann cells; test: stimulation of Schwann cell growth and myelin formation; conditions: inventors' experiments

| Substance | side reactions on clinical use [1] | clinical effects observed [2] | clinical effectiveness [3] | therapeutic effect ([4]; 14 patients with severe amyotrophic lateral sclerosis) | disordered breathing ([4]; another patient, not corrected by other preparations) | patients with strength build-up in the extremities and reduced bulbar disorders ([4]; of 14 patients) | swallowing ([4]; one patient with aphonia and dysphagia, after 10 days of 2 ml twice a day) | activity of true and false cholinesterase [5] | arterial pressure [6] | effect on smooth muscles [7] | toxicity [8] | start of myelination of degenerating nerves ([9]; 0.1 to 1.0 mg/kg, versus untreated animals) | speed of impulse passage in the nerve ([9]; electrophysiological studies) | solubility [10] | time to lowered levels of sensing disorders ([11]; from the start of treatment, 2 ml twice a day plus massage, physiotherapy, vitamins) | patients with a positive effect ([11]; of 37 syringomyelia patients) | onset of decline of sympathalgic pain intensity ([11]; some patients) | activity in relation to connective tissue development, preventing formation of scars [12] | growth of Schwann cells and subsequent myelin formation [13] |
| --- | --- | --- | --- | --- | --- | --- | --- | --- | --- | --- | --- | --- | --- | --- | --- | --- | --- | --- | --- |
| glatiramer acetate [Copaxone-Teva] | Numerous side reactions |  |  |  |  |  |  |  |  |  |  |  |  |  |  |  |  |  |  |
| stephaglabrin sulfate |  | disappearance of fibrillations, reduction in amyotrophy intensity and polykinetics of proprioceptive reflexes, and growth of muscle power in the arms | effective | positive therapeutic effect | restored | 12 patients | significant improvement in swallowing | suppresses the activity | lowers arterial pressure | tonic effect | low toxicity | stimulates an early start of myelination | complete recovery | well soluble | within two to three weeks | 28 patients | 10th to 12th day | specific inhibiting activity | stimulate the growth of Schwann cells |
